We go through five compounds from patent EP0012435A2, “Isoxazole derivatives, process for their preparation, medicines containing them and intermediates required in this process” (HOECHST AKTIENGESELLSCHAFT, priority 1978, dated 1980).

Marks after values point to notes of the source that are not given here.

Series [1] in a line: Acute toxicity. To be noted: mouse, in vivo, ip; NMRI mice, intraperitoneal, mortality within 7 days; read-out: Toxizität LD50-Bereich (Maus i.p.). The source says: Die Bestimmung der LD50-Bereiche erfolgte standardgemäß über die innerhalb von 7 Tagen bei NMRI-Mäusen nach intraperitonealer Gabe auftretende Mortalität.
Series [2] in a line: Ulcerogenic effect (gastric mucosal lesions after oral dose). The format is in vivo, Ratten. To be noted: rat, gastric mucosa, fasted rats, killed 24 h after dose, UD50 by Litchfield and Wilcoxon, read-out: Ulzerogenität UD50. The text has this:
(§1) Die Untersuchungen erfolgten an männlichen Sprague-Dawley Ratten im Körpergewicht zwischen 200 und 300 g. 48 Stunden vor Applikation der Testsubstanzen bis zum Töten der Tiere wurde das Futter entzogen, bei freiem Zugang zum Trinkwasser. Die Ratten wurden 24 Stunden nach oraler Gabe getötet, der Magen entommen, unter fließendem Wasser gereinigt und auf Schleimhautlösionen inspiziert. Als Ulzera galten alle makroskopisch sichtbaren Läsionen. Bestimmt wurde der Anteil der Tiere mit Ulzera pro dosi und die UD50 nach Litchfield und Wilcoxon (J. Pharmacol. exp. Ther. 96, 99 (1949)).

Series [3] deals with männliche Ratten eines Wistar-Lewis-Stammes. The series is described as follows: Adjuvant arthritis, preventive test (method of Pearson). The format is in vivo. The note with it: for ED50: Rattus norvegicus, 408 h, read-out: Adjuvans-Arthritis ED50; for Therapeut. Index UD50 / ED50: ratio of ulcerogenic UD50 to adjuvant arthritis ED50. The source says: 1. Adjuvans-Arthritis, praeventive Testung
Die Untersuchungen wurden nach der Methode von Pearson durchgeführt (Arthrit. Rheum. 2, 440 (1959)). Als Versuchstiere dienten männliche Ratten eines Wistar-Lewis-Stammes im Körpergewicht zwischen 130 und 200 g. Die zu prüfenden Verbindungen wurden täglich vom 1. bis 17. Versuchstag oral appliziert. Tiere einer Kontrollgruppe erhielten nur das Lösungsmittel. Als Wirkungskriterium diente die Herabsetzung der Pfoten-Volumenzunahme gegenüber der unbehandelten Kontrollgruppe. Die ED50-Werte wurden graphisch aus der Dosiswirkungskurve bestimmt.

For series [4], the system named is NMRI-Mäusen. The note with it: literature value (Barnes and Eltherington, Drug Dosage in Laboratory Animals, 1973, p. 199); cited from earlier work.
In series [5] the test system is männlichen Sprague-Dawley Ratten. Briefly: Ulcerogenic effect (gastric mucosal lesions after oral dose). The note with it: fasted rats, killed 24 h after dose, UD50 by Litchfield and Wilcoxon. The format is in vivo.
Source text: as §1

Where [6] appears, read: oral, daily from day 1 to 17, reduction of paw volume increase vs. control, ED50 read graphically from dose-response curve.

In general, LD50 refers to the dose expected to kill half of the subjects tested. One may read the ED50 as the midpoint of the dose-response relation. As for `CCc1oncc1C(=O)Nc1ccc(C(F)(F)F)cc1` [Beispiel 1, N-(4-Trifluormethylphenyl)-5-äthylisoxazol-4-carboxamid], in series [1], the LD50 at 168 h is 150 to 300 mg/kg. For the same compound, the TD50 at 24 h in series [2] stood at 70 mg/kg. For the same compound, in series [3] (setting [6]), the ED50 was found to be 6 mg/kg. Besides, the “Therapeut. Index UD50 / ED50” value in series [3] was determined as 12.
With “Phenylbutazon [Phenyl=butazon, reference compound]”, the “Toxizität LD50 (Maus i.p.)” value in series [4] is “LD50 = 336^* mg/kg”. Besides, the “Ulzerogenität UD50” value in series [5] came to 100 mg/kg. Besides, the “Adjuvans-Arthritis ED50” value in series [3] (oral, daily from day 1 to 17, reduction of paw volume increase vs. control, ED50 read graphically from dose-response curve, 24480 min) is listed as 37 mg/kg.
Turning to `O=C(Nc1ccc(C(F)(F)F)cc1)c1cnoc1C(F)(F)F` [Beispiel 6, N-(4-Trifluormethylphenyl)-5-trifluormethylisoxazol-4-carboxamid], the TD50 at 24 h in series [2] is 80 mg/kg. The ED50 in series [3] (setting [6]) was 3 mg/kg. In addition, the “Therapeut. Index UD50 / ED50” value in series [3] came to 27.
As to `Cc1oncc1C(=O)Nc1ccc(F)cc1` [P 25 24 959 Nr. 10, N-(4-Fluorphenyl)-5-methylisoxazol-4-carboxamid, reference compound], in series [1], the LD50 at 168 h lay in the range of 200 to 400 mg/kg. The TD50 at 24 h in series [2] was determined as 250 mg/kg. For the same compound, in series [3] (setting [6]), the median effective dose (ED50) is 15 mg/kg. For the same compound, the “Therapeut. Index UD50 / ED50” value in series [3] was 17.
Consider `Cc1oncc1C(=O)Nc1ccc(Oc2ccc(C(F)(F)F)cc2)cc1` [Beispiel 10, N-[4-(4-Trifluormethylphenoxy)-phenyl]-5-methylisoxazol-4-carboxamid], for which the LD50 at 168 h in series [1] lay within 150 to 300 mg/kg. In addition, the TD50 at 24 h in series [2] is 230 mg/kg. Also, the ED50 in series [3] (setting [6]) stood at 8 mg/kg. Further, the “Therapeut. Index UD50 / ED50” value in series [3] amounted to 29.
